Reference: ChEMBL document CHEMBL4251606, “Design and characterization of α-lipoic acyl shikonin ester twin drugs as tubulin and PDK1 dual inhibitors” (Eur J Med Chem, 2018)
Calls of active or inactive are those of the source. The calls are words filed in the database; no cut-off is given here.

Key:
HepG2 = assay: Antiproliferative activity against human HepG2 cells after 24 hrs by MTT assay; assay type: functional, cell-based; details: HepG2, 24 h
A549 = assay: Antiproliferative activity against human A549 cells after 24 hrs by MTT assay; assay type: functional, cell-based; details: A549, 24 h
L02 = assay: Antiproliferative activity against human LO2 cells after 24 hrs by MTT assay; assay type: cell-based; details: L02, 24 h
HEK-293T = assay: Antiproliferative activity against human 293T cells after 24 hrs by MTT assay; assay type: cell-based
HeLa [1] = assay: Cell cycle arrest in human HeLa cells assessed as accumulation of cells at G1 phase at 2 uM after 24 hrs by propidium iodide staining-based FACScan flow cytometric analysis (reference value: 62.92%); assay type: functional
HeLa [2] = assay: Cell cycle arrest in human HeLa cells assessed as accumulation of cells at G2/M phase at 2 uM after 24 hrs by propidium iodide staining-based FACScan flow cytometric analysis (reference value: 16.82%); assay type: functional
HeLa [3] = assay: Cell cycle arrest in human HeLa cells assessed as accumulation of cells at G1 phase at 4 uM after 24 hrs by propidium iodide staining-based FACScan flow cytometric analysis (reference value: 62.92%); assay type: functional
HeLa [4] = assay: Cell cycle arrest in human HeLa cells assessed as accumulation of cells at S phase at 4 uM after 24 hrs by propidium iodide staining-based FACScan flow cytometric analysis (reference value: 20.16%); assay type: functional
HeLa [5] = assay: Cell cycle arrest in human HeLa cells assessed as accumulation of cells at G1 phase at 8 uM after 24 hrs by propidium iodide staining-based FACScan flow cytometric analysis (reference value: 62.92%); assay type: functional
[6] = target: [Pyruvate dehydrogenase (acetyl-transferring)] kinase isozyme 1, mitochondrial (Homo sapiens) (UniProt Q15118); assay: Inhibition of PDK1 in human HeLa cells assessed as increase in PDH activity at 1 to 1.5 uM by microplate assay; assay type: cell-based
[7] = target: [Pyruvate dehydrogenase (acetyl-transferring)] kinase isozyme 1, mitochondrial (Homo sapiens) (UniProt Q15118); assay: Inhibition of PDK1 in human HeLa cells assessed as increase in PDH-E1 alpha expression up to 8 uM by Western blot analysis; assay type: cell-based
[8] = target: [Pyruvate dehydrogenase (acetyl-transferring)] kinase isozyme 1, mitochondrial (Homo sapiens) (UniProt Q15118); assay: Inhibition of PDK1 in human HeLa cells assessed as decrease in PDH-E1 alpha p-ser300 expression up to 8 uM by Western blot analysis; assay type: cell-based
[9] = target: [Pyruvate dehydrogenase (acetyl-transferring)] kinase isozyme 1, mitochondrial (Homo sapiens) (UniProt Q15118); assay: Inhibition of PDK1 in human HeLa cells assessed as decrease in PDH-E1 alpha p-ser232 expression up to 8 uM by Western blot analysis; assay type: cell-based
HeLa [10] = assay: Induction of apoptosis in human HeLa cells assessed as viable cells at 2 uM after 24 hrs by Annexin V-APC/propidium iodide staining-based FACScan flow cytometric analysis (reference value: 85.1%); assay type: functional; details: read-out: Activity
HeLa [11] = assay: Induction of apoptosis in human HeLa cells assessed as early apoptotic cells at 2 uM after 24 hrs by Annexin V-APC/propidium iodide staining-based FACScan flow cytometric analysis (reference value: 6.46%); assay type: functional
HeLa [12] = assay: Induction of apoptosis in human HeLa cells assessed as late apoptotic cells at 2 uM after 24 hrs by Annexin V-APC/propidium iodide staining-based FACScan flow cytometric analysis (reference value: 7.22%); assay type: functional
HeLa [13] = assay: Induction of apoptosis in human HeLa cells assessed as late apoptotic cells at 4 uM after 24 hrs by Annexin V-APC/propidium iodide staining-based FACScan flow cytometric analysis (reference value: 7.22%); assay type: functional
HeLa [14] = assay: Induction of apoptosis in human HeLa cells assessed as early apoptotic cells at 6 uM after 12 hrs by Annexin V-APC/propidium iodide staining-based FACScan flow cytometric analysis (reference value: 2.45%); assay type: functional
HeLa [15] = assay: Induction of apoptosis in human HeLa cells assessed as necrotic cells at 6 uM after 12 hrs by Annexin V-APC/propidium iodide staining-based FACScan flow cytometric analysis (reference value: 0.725%); assay type: functional
HeLa [16] = assay: Induction of apoptosis in human HeLa cells assessed as viable cells at 6 uM after 24 hrs by Annexin V-APC/propidium iodide staining-based FACScan flow cytometric analysis (reference value: 93%); assay type: functional; details: read-out: Activity
HeLa [17] = assay: Induction of apoptosis in human HeLa cells assessed as late apoptotic cells at 6 uM after 24 hrs by Annexin V-APC/propidium iodide staining-based FACScan flow cytometric analysis (reference value: 3.84%); assay type: functional
HeLa [18] = assay: Induction of apoptosis in human HeLa cells assessed as increase in cleaved PARP expression up to 8 uM after 24 hrs by Western blot analysis; assay type: functional, cell-based
HeLa [19] = assay: Induction of apoptosis in human HeLa cells assessed as increase in caspase-3 cleavage up to 8 uM after 24 hrs by Western blot analysis; assay type: functional, cell-based
HeLa [20] = assay: Induction of apoptosis in human HeLa cells assessed as late apoptotic cells by measuring FL3-H+ cells at 4 uM after 12 hrs by propidium iodide staining-based flow cytometric analysis (reference value: 3.66%); assay type: functional
HeLa [21] = assay: Antitumor activity against human HeLa cells xenografted in nude mouse assessed as reduction in tumor size at 2 mg/kg, ip administered once in every 2 days for 15 days relative to control; assay type: functional
Mus musculus = assay: Toxicity in nude mouse xenografted with human HeLa cells assessed as loss in body weight at 0.5 to 2 mg/kg, ip administered once in every 2 days for 15 days; assay type: organism-based; details: in vivo
HeLa [22] = assay: Antitumor activity against human HeLa cells xenografted in nude mouse assessed as increase in mouse survival at 2 mg/kg, ip administered once in every 2 days for 15 days relative to control; assay type: functional, organism-based
HeLa [23] = assay: Induction of apoptosis in human HeLa cells assessed as late apoptotic cells by measuring FL3-H+ cells at 0.7 uM after 24 hrs by propidium iodide staining-based FACScan flow cytometric analysis (reference value: 2.14%); assay type: functional
HeLa [24] = assay: Induction of apoptosis in human HeLa cells assessed as late apoptotic cells by measuring FL3-H+ cells at 1.4 uM after 24 hrs by propidium iodide staining-based FACScan flow cytometric analysis (reference value: 2.14%); assay type: functional
HeLa [25] = assay: Induction of apoptosis in human HeLa cells assessed as late apoptotic cells by measuring FL3-H+ cells at 2.8 uM after 24 hrs by propidium iodide staining-based FACScan flow cytometric analysis (reference value: 2.14%); assay type: functional
HeLa [26] = assay: Induction of apoptosis in human HeLa cells assessed as late apoptotic cells by measuring FL3-H+ cells at 5.6 uM after 24 hrs by propidium iodide staining-based FACScan flow cytometric analysis (reference value: 2.14%); assay type: functional
HeLa [27] = assay: Induction of apoptosis in human HeLa cells assessed as late apoptotic cells by measuring FL3-H+ cells at 6 uM after 12 hrs by propidium iodide staining-based FACScan flow cytometric analysis (reference value: 2.13%); assay type: functional
HeLa [28] = assay: Induction of apoptosis in human HeLa cells assessed as late apoptotic cells by measuring FL3-H+ cells at 6 uM after 24 hrs by propidium iodide staining-based FACScan flow cytometric analysis (reference value: 2.13%); assay type: functional
[29] = target: [Pyruvate dehydrogenase (acetyl-transferring)] kinase isozyme 1, mitochondrial (Homo sapiens) (UniProt Q15118); assay: Inhibition of PDK1 in human HeLa cells assessed as decrease in PDH-E1 alpha p-ser232 expression at 6 uM by Western blot analysis; assay type: cell-based
HeLa [30] = assay: Reduction in lactate production in human HeLa cells at 2 to 8 uM; assay type: functional, cell-based

- IC50 (HepG2): 5.37 µM
- IC50 (A549): 16.4 µM
- inhibition [6]: Active
- inhibition [7]: Active
- inhibition [8]: Active
- inhibition [9]: Active
- inhibition [29]: Active
SMILES: CC(C)=CC[C@@H](OC(=O)CCCC[C@@H]1CCSC(c2ccccc2)S1)C1=CC(=O)c2c(O)ccc(O)c2C1=O (stereo not given in full)
- IC50 (L02): 116 µM
- IC50 (HEK-293T): 88.8 µM
- Activity (HeLa [1]): 50.96%
- Activity (HeLa [2]): 32.67%
- Activity (HeLa [3]): 25.74%
- Activity (HeLa [4]): 29.06%
- Activity (HeLa [5]): 15.42%
- viability at 2 µM (HeLa [10]): 23.6%
- Activity (HeLa [11]): 15.5%
- Activity (HeLa [12]): 48.9%
- Activity (HeLa [13]): 58.4%
- Activity (HeLa [14]): 19%
- Activity (HeLa [15]): 2.31%
- viability at 6 µM (HeLa [16]): 29.1%
- Activity (HeLa [17]): 34.8%
- Activity (HeLa [18]): Active
- Activity (HeLa [19]): Active
- Activity (HeLa [20]): 4.74%
- fold change (FC) (HeLa [21]): 5
- Activity (Mus musculus): Non-Toxic
- Activity (HeLa [22]): Active
- Activity (HeLa [23]): 6.4%
- Activity (HeLa [24]): 30.1%
- Activity (HeLa [25]): 37.5%
- Activity (HeLa [26]): 85.2%
- Activity (HeLa [27]): 10%
- Activity (HeLa [28]): 43.5%
- Activity (HeLa [30]): Active
